pIC50: −log10 of the molar value.
Tested on: 282377-053-R-J1-PDC complex spheroid viability
Experiment: Anticancer human tumor 282377-053-R-J1-PDC patient-derived colon adenocarcinoma cell line growth inhibition [RAS]
Details: for pIC50: curve of first compound; for viability, T/C: stronger effect = lower value
In short: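 Multi-cell-type spheroids: tumor cells plus HUVEC endothelial cells and mesenchymal stem cells. RAS-pathway inhibitors were combined with targeted agents, each dosed in half-log steps down from clinical Cmax, or from 10 microM when Cmax was unknown.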

[1] = second compound 0.000949 µM, first compound 0.000949 µM
[2] = second compound 0.000949 µM, first compound 0.003 µM
[3] = second compound 0.000949 µM, first compound 0.00949 µM
[4] = second compound 0.000949 µM, first compound 0.03 µM
[5] = second compound 0.000949 µM, first compound 0.0949 µM
[6] = second compound 0.000949 µM, first compound 0.3 µM
[7] = second compound 0.003 µM, first compound 0.000949 µM
[8] = second compound 0.003 µM, first compound 0.003 µM
[9] = second compound 0.003 µM, first compound 0.00949 µM
[10] = second compound 0.003 µM, first compound 0.03 µM
[11] = second compound 0.003 µM, first compound 0.0949 µM
[12] = second compound 0.003 µM, first compound 0.3 µM
[13] = second compound 0.00949 µM, first compound 0.000949 µM
[14] = second compound 0.00949 µM, first compound 0.003 µM
[15] = second compound 0.00949 µM, first compound 0.00949 µM
[16] = second compound 0.00949 µM, first compound 0.03 µM
[17] = second compound 0.00949 µM, first compound 0.0949 µM
[18] = second compound 0.00949 µM, first compound 0.3 µM
[19] = second compound 0.03 µM, first compound 0.000949 µM
[20] = second compound 0.03 µM, first compound 0.003 µM
[21] = second compound 0.03 µM, first compound 0.00949 µM
[22] = second compound 0.03 µM, first compound 0.03 µM
[23] = second compound 0.03 µM, first compound 0.0949 µM
[24] = second compound 0.03 µM, first compound 0.3 µM
[25] = second compound 0.0949 µM, first compound 0.000949 µM
[26] = second compound 0.0949 µM, first compound 0.003 µM
[27] = second compound 0.0949 µM, first compound 0.00949 µM
[28] = second compound 0.0949 µM, first compound 0.03 µM
[29] = second compound 0.0949 µM, first compound 0.0949 µM
[30] = second compound 0.0949 µM, first compound 0.3 µM
[31] = second compound 0.3 µM, first compound 0.000949 µM
[32] = second compound 0.3 µM, first compound 0.003 µM
[33] = second compound 0.3 µM, first compound 0.00949 µM
[34] = second compound 0.3 µM, first compound 0.03 µM
[35] = second compound 0.3 µM, first compound 0.0949 µM
[36] = second compound 0.3 µM, first compound 0.3 µM
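Note: spheroids exposed to agents for seven days before readout.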
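Throughout, for viability, T/C: luminescence viability as percent of DMSO vehicle control wells.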

SMILES: C=CC(=O)N1CCN(c2nc(OCC3CCCN3C)nc3c(F)c(-c4nc(N)cc(C)c4C(F)(F)F)c(Cl)cc23)C(C)C1 (stereo unspecified) + CCn1c(-c2cc(N3CCN(C)CC3)cnc2C(C)OC)c2c3cc(ccc31)-c1csc(n1)CC(NC(=O)C1CC1C)C(=O)N1CCCC(N1)C(=O)OCC(C)(C)C2
- pIC50 (second compound 0.000949 µM): < 6.00
- pIC50 (second compound 0.003 µM): < 6.00
- pIC50 (second compound 0.00949 µM): < 6.00
- pIC50 (second compound 0.03 µM): < 6.00
- pIC50 (second compound 0.0949 µM): < 6.00
- pIC50 (second compound 0.3 µM): < 6.00
- viability, T/C (second compound 0.000949 µM, first compound 0.00316 µM): 110%
- viability, T/C (second compound 0.000949 µM, first compound 0.01 µM): 101%
- viability, T/C (second compound 0.000949 µM, first compound 0.0316 µM): 112%
- viability, T/C (second compound 0.000949 µM, first compound 0.1 µM): 102%
- viability, T/C (second compound 0.000949 µM, first compound 0.316 µM): 129%
- viability, T/C (second compound 0.000949 µM, first compound 1 µM): 107%
- viability, T/C (second compound 0.003 µM, first compound 0.00316 µM): 108%
- viability, T/C (second compound 0.003 µM, first compound 0.01 µM): 120%
- viability, T/C (second compound 0.003 µM, first compound 0.0316 µM): 98.4%
- viability, T/C (second compound 0.003 µM, first compound 0.1 µM): 115%
- viability, T/C (second compound 0.003 µM, first compound 0.316 µM): 73.2%
- viability, T/C (second compound 0.003 µM, first compound 1 µM): 143%
- viability, T/C (second compound 0.00949 µM, first compound 0.00316 µM): 134%
- viability, T/C (second compound 0.00949 µM, first compound 0.01 µM): 97.6%
- viability, T/C (second compound 0.00949 µM, first compound 0.0316 µM): 115%
- viability, T/C (second compound 0.00949 µM, first compound 0.1 µM): 89.5%
- viability, T/C (second compound 0.00949 µM, first compound 0.316 µM): 108%
- viability, T/C (second compound 0.00949 µM, first compound 1 µM): 110%
- viability, T/C (second compound 0.03 µM, first compound 0.00316 µM): 120%
- viability, T/C (second compound 0.03 µM, first compound 0.01 µM): 85.6%
- viability, T/C (second compound 0.03 µM, first compound 0.0316 µM): 88.1%
- viability, T/C (second compound 0.03 µM, first compound 0.1 µM): 96.6%
- viability, T/C (second compound 0.03 µM, first compound 0.316 µM): 93.6%
- viability, T/C (second compound 0.03 µM, first compound 1 µM): 107%
- viability, T/C (second compound 0.0949 µM, first compound 0.00316 µM): 124%
- viability, T/C (second compound 0.0949 µM, first compound 0.01 µM): 113%
- viability, T/C (second compound 0.0949 µM, first compound 0.0316 µM): 106%
- viability, T/C (second compound 0.0949 µM, first compound 0.1 µM): 119%
- viability, T/C (second compound 0.0949 µM, first compound 0.316 µM): 91.8%
- viability, T/C (second compound 0.0949 µM, first compound 1 µM): 133%
- viability, T/C (second compound 0.3 µM, first compound 0.00316 µM): 113%
- viability, T/C (second compound 0.3 µM, first compound 0.01 µM): 93.7%
- viability, T/C (second compound 0.3 µM, first compound 0.0316 µM): 134%
- viability, T/C (second compound 0.3 µM, first compound 0.1 µM): 120%
- viability, T/C (second compound 0.3 µM, first compound 0.316 µM): 104%
- viability, T/C (second compound 0.3 µM, first compound 1 µM): 121%

SMILES: CC1(C)CCC(Nc2ncc(C(F)(F)F)c(-c3c[nH]c4c(P(C)(C)=O)c(C#N)ccc34)n2)CN1 (stereo unspecified) + CCn1c(-c2cc(N3CCN(C)CC3)cnc2C(C)OC)c2c3cc(ccc31)-c1csc(n1)CC(NC(=O)C1CC1C)C(=O)N1CCCC(N1)C(=O)OCC(C)(C)C2
- pIC50 (second compound 0.000949 µM): < 6.52
- pIC50 (second compound 0.003 µM): < 6.52
- pIC50 (second compound 0.00949 µM): < 6.52
- pIC50 (second compound 0.03 µM): < 6.52
- pIC50 (second compound 0.0949 µM): < 6.52
- pIC50 (second compound 0.3 µM): < 6.52
- viability, T/C [1]: 104%
- viability, T/C [2]: 123%
- viability, T/C [3]: 109%
- viability, T/C [4]: 104%
- viability, T/C [5]: 97.8%
- viability, T/C [6]: 94.8%
- viability, T/C [7]: 98.2%
- viability, T/C [8]: 135%
- viability, T/C [9]: 129%
- viability, T/C [10]: 99.6%
- viability, T/C [11]: 90.2%
- viability, T/C [12]: 94.9%
- viability, T/C [13]: 116%
- viability, T/C [14]: 96.5%
- viability, T/C [15]: 126%
- viability, T/C [16]: 91.1%
- viability, T/C [17]: 92%
- viability, T/C [18]: 96.3%
- viability, T/C [19]: 109%
- viability, T/C [20]: 104%
- viability, T/C [21]: 110%
- viability, T/C [22]: 101%
- viability, T/C [23]: 96.9%
- viability, T/C [24]: 84.3%
- viability, T/C [25]: 107%
- viability, T/C [26]: 118%
- viability, T/C [27]: 124%
- viability, T/C [28]: 110%
- viability, T/C [29]: 119%
- viability, T/C [30]: 76.7%
- viability, T/C [31]: 136%
- viability, T/C [32]: 144%
- viability, T/C [33]: 145%
- viability, T/C [34]: 113%
- viability, T/C [35]: 108%
- viability, T/C [36]: 88.2%

SMILES: CCc1c2c(nc3ccc(O)cc13)-c1cc3c(c(=O)n1C2)COC(=O)[C@]3(O)CC + CCn1c(-c2cc(N3CCN(C)CC3)cnc2C(C)OC)c2c3cc(ccc31)-c1csc(n1)CC(NC(=O)C1CC1C)C(=O)N1CCCC(N1)C(=O)OCC(C)(C)C2
- pIC50 (second compound 0.000949 µM): < 6.52
- pIC50 (second compound 0.003 µM): < 6.52
- pIC50 (second compound 0.00949 µM): < 6.52
- pIC50 (second compound 0.03 µM): < 6.52
- pIC50 (second compound 0.0949 µM): < 6.52
- pIC50 (second compound 0.3 µM): < 6.52
- viability, T/C [1]: 130%
- viability, T/C [2]: 112%
- viability, T/C [3]: 153%
- viability, T/C [4]: 124%
- viability, T/C [5]: 86.5%
- viability, T/C [6]: 81%
- viability, T/C [7]: 109%
- viability, T/C [8]: 114%
- viability, T/C [9]: 151%
- viability, T/C [10]: 107%
- viability, T/C [11]: 119%
- viability, T/C [12]: 66.2%
- viability, T/C [13]: 107%
- viability, T/C [14]: 112%
- viability, T/C [15]: 136%
- viability, T/C [16]: 105%
- viability, T/C [17]: 112%
- viability, T/C [18]: 77.2%
- viability, T/C [19]: 116%
- viability, T/C [20]: 102%
- viability, T/C [21]: 139%
- viability, T/C [22]: 122%
- viability, T/C [23]: 118%
- viability, T/C [24]: 65.4%
- viability, T/C [25]: 115%
- viability, T/C [26]: 122%
- viability, T/C [27]: 162%
- viability, T/C [28]: 131%
- viability, T/C [29]: 116%
- viability, T/C [30]: 69.4%
- viability, T/C [31]: 131%
- viability, T/C [32]: 131%
- viability, T/C [33]: 161%
- viability, T/C [34]: 104%
- viability, T/C [35]: 109%
- viability, T/C [36]: 77.9%
